Experimental findings from PMC6795878, “Pentagamavunon-1 (PGV-1) inhibits ROS metabolic enzymes and suppresses tumor cell growth by inducing M phase (prometaphase) arrest and cell senescence” (Scientific Reports, 2019) are described below.

The assay has as its target T1, GST-P1 (Homo sapiens, UniProt P09211).
T1 construct: gene GSTP1; 6xHis-tagged GST-P1 recombinant protein
The experiment in a line: GSH-CDNB conjugation assay with purified recombinant enzyme; also PGV-1 bead pulldown competed by glutathione. The class given is biochemical.

T1 sequence (P09211 2-210): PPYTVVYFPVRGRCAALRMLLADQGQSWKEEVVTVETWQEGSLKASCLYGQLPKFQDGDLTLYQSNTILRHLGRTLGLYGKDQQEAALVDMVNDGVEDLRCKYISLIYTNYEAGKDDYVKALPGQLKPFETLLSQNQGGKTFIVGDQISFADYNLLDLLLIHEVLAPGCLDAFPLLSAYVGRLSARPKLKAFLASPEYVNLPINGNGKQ

On to `Cc1cc(/C=C2\CC/C(=C\c3cc(C)c(O)c(C)c3)C2=O)cc(C)c1O` [PGV-1], for which the half-maximal inhibitory concentration (IC50) was found to be 97.6 ± 3.8 µM.
